Read-outs that look alike come from different tables or passages of the source.

Here are results for twelve compounds from US11324725B2, “Compositions and methods for the inhibition of pruritus” (The United States of America, as represented by the …, priority 2017, dated 2022).

This test addresses T1, hNpr1 (Homo sapiens, UniProt P16066).
T1 sequence (P16066 33-1061): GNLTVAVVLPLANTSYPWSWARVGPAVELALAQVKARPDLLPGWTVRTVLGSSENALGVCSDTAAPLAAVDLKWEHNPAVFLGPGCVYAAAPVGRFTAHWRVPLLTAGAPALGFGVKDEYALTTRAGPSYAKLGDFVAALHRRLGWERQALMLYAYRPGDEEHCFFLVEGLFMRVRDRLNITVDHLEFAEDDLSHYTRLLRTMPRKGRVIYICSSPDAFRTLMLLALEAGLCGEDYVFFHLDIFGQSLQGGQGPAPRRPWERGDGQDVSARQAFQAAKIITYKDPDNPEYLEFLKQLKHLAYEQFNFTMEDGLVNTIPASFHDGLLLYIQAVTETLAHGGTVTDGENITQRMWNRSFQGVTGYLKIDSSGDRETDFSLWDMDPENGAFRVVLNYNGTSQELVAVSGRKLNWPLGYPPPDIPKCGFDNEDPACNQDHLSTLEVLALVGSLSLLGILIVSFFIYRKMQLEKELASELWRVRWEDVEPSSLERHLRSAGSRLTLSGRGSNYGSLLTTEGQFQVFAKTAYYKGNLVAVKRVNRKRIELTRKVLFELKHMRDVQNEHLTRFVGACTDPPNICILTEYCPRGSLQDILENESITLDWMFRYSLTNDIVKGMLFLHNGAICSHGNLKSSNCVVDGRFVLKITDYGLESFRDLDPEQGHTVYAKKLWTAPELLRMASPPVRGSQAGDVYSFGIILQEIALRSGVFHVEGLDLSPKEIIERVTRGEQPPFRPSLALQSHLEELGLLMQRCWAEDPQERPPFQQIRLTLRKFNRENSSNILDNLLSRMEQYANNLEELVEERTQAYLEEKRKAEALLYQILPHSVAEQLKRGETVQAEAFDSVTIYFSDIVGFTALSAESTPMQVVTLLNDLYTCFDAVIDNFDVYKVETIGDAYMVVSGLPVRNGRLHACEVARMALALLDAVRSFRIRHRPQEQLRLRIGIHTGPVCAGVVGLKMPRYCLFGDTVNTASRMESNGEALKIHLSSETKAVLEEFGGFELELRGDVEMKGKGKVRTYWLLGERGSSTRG
In words: Cell-free hNpr1 membrane cyclase assay (cGMP ELISA). Type of test: biochemical.

Where [1] appears, read: Table 1, biochemical assay, read-out: IC50 biochem assay.
Where [2] appears, read: calculated with Cheng-Prusoff equation from Table 4, read-out: Ki hNpr1 cyclase assay [μM] (mean ± SEM).
Setting [3] is: membranes of HEK-hNpr1-cGMP-sensor cells, hNppa-stimulated.
Setting [4] is: membranes of HEK-hNpr1-cGMP-sensor cells, hNppa-stimulated, read-out: IC50 [μM] (mean ± SEM), membrane cyclase assay.

In general, IC50 refers to the concentration that gives 50% inhibition. In general, Ki refers to a dissociation constant, usually derived from enzyme kinetics or from competition with a known ligand. Consider `CCC(CC)c1cc([C@H]2CN3CC[C@H]2C[C@@H]3CNS(=O)(=O)c2cccs2)nc(-c2ccncc2)n1` [JS-3, N-(((2R,4S,5R)-5-(6-(pentan-3-yl)-2-(pyridin-4-yl)pyrimidin-4-yl)quinuclidin-2-yl)methyl)thiophene-2-sulfonamide], for which the half-inhibitory concentration (IC50) is, setting by setting: under setting [1], 3.98 µM; under setting [4], 4 ± 1.2 µM. The Ki under setting [2] is 0.58 ± 0.179 µM. For the same compound, the “Imax [%] (mean ± SEM), membrane cyclase assay” value (“Imax [%] (mean ± SEM)” below) under setting [3] is −98.2 ± 1.8%.

As to `COc1cc(CN2CCC(C)(NC(C)=O)CC2)cc(-c2ccncc2)c1` [JS-4, N-(1-(3-methoxy-5-(pyridin-4-yl)benzyl)-4-methylpiperidin-4-yl)acetamide], the half-inhibitory concentration (IC50) runs as follows: under setting [1], 2.2 µM; under setting [4], 2.8 ± 0.04 µM. For the same compound, the Ki under setting [2] was 0.41 ± 0.006 µM. Also, under setting [3], the “Imax [%] (mean ± SEM)” value is −96.1 ± 3.7%.

Consider `Cc1noc(C)c1-c1cc(-c2ccccc2Oc2ccccc2)cn2cncc12` [JS-5, 3,5-dimethyl-4-(6-(2-phenoxyphenyl)imidazo[1,5-a]pyridin-8-yl)isoxazole], for which the IC50 reads like this: under setting [1], 0.141 µM; under setting [4], 0.1 ± 0.1 µM. Moreover, under setting [2], the inhibition constant (Ki) was 0.02 ± 0.02 µM. Also, under setting [3], the “Imax [%] (mean ± SEM)” value was −99.8 ± 0.1%.

With `COc1ccccc1-c1n[nH]c2ncc(C(=O)NCc3cccnc3)nc12` [JS-6, 3-(2-methoxyphenyl)-N-(pyridin-3-ylmethyl)-1H-pyrazolo[3,4-b]pyrazine-5-carboxamide], the IC50 was determined as 0.766 µM under setting [1] and 0.8 ± 1.9 µM under setting [4]. In addition, under setting [2], the Ki is 0.11 ± 0.275 µM. For the same compound, under setting [3], the “Imax [%] (mean ± SEM)” value is given as −99.4 ± 0.5%.

Take `O=C(NCc1cccnc1)c1cnc2[nH]nc(-c3ccccc3)c2n1` [JS-7, 3-phenyl-N-(pyridin-3-ylmethyl)-1H-pyrazolo[3,4-b]pyrazine-5-carboxamide]: the IC50 reads like this: under setting [1], 0.122 µM; under setting [4], 0.1 ± 0.3 µM. Under setting [2], the inhibition constant (Ki) was 0.02 ± 0.044 µM. For the same compound, the “Imax [%] (mean ± SEM)” value under setting [3] is −98.4 ± 1.5%.

Turning to `Cc1nn2c(c1-c1ccccc1OCc1ccccc1)N(C(=O)Cc1ccc3c(c1)OCO3)CCC2` [JS-8, 2-(benzo[d][1,3]dioxol-5-yl)-1-(3-(2-(benzyloxy)phenyl)-2-methyl-6,7-dihydropyrazolo[1,5-a]pyrimidin-4(5H)-yl)ethan-1-one], the half-maximal inhibitory concentration (IC50) reads like this: under setting [1], 0.336 µM; under setting [4], 0.3 ± 0.4 µM. In addition, the Ki under setting [2] is 0.05 ± 0.064 µM. Also, the “Imax [%] (mean ± SEM)” value under setting [3] is recorded as −98.0 ± 2.0%.

In the case of `Cc1nn2c(c1-c1ccccc1OCc1ccccc1)N(C(=O)Cc1ccccn1)CCC2` [JS-9, 1-(3-(2-(benzyloxy)phenyl)-2-methyl-6,7-dihydropyrazolo[1,5-a]pyrimidin-4(5H)-yl)-2-(pyridin-2-yl)ethan-1-one], the IC50 came to 2.17 µM under setting [1] and 2.2 ± 1.8 µM under setting [4]. Further, the Ki under setting [2] is 0.32 ± 0.262 µM. Further, the “Imax [%] (mean ± SEM)” value under setting [3] is on record as −95.3 ± 4.5%.

Take `Cc1nn2c(c1-c1ccccc1Oc1ccccc1)N(C(=O)Cc1ccc3c(c1)OCO3)CCC2` [JS-10, 2-(benzo[d][1,3]dioxol-5-yl)-1-(2-methyl-3-(2-phenoxyphenyl)-6,7-dihydropyrazolo[1,5-a]pyrimidin-4(5H)-yl)ethan-1-one]: the IC50 runs as follows: under setting [1], 0.744 µM; under setting [4], 0.7 ± 0.6 µM. For the same compound, the inhibition constant (Ki) under setting [2] was 0.11 ± 0.09 µM. Moreover, the “Imax [%] (mean ± SEM)” value under setting [3] is reported as −95.2 ± 3.3%.

With `Cc1cc(CNC(=O)c2ccc3c(c2)n(CC2CC2)c(=O)n3C2CCCCC2)on1` [JS-11, 1-cyclohexyl-3-(cyclopropylmethyl)-N-((3-methylisoxazol-5-yl)methyl)-2-oxo-2,3-dihydro-1H-benzo[d]imidazole-5-carboxamide], the IC50 is 1.14 µM under setting [1] and 1.4 ± 0.1 µM under setting [4]. For the same compound, the Ki under setting [2] was 0.21 ± 0.008 µM. For the same compound, the “Imax [%] (mean ± SEM)” value under setting [3] was −99.7 ± 0.2%.

On to `COc1ccc(C2(C(=O)N3CCC4(CC3)c3nccn3-c3ccccc3CN4C)CC2)cc1` [JS-12, (1-(4-methoxyphenyl)cyclopropyl)(5-methyl-5,6-dihydrospiro[benzo[f]imidazo[1,2-a][1,4]diazepine-4,4′-piperidin]-1′-yl)methanone], for which the affinity corresponds to a Ki of 0.1 ± 0.015 µM. Moreover, the IC50 (IC50 [μM] (mean ± SEM), membrane cyclase assay, membranes of HEK-hNpr1-cGMP-sensor cells, hNppa-stimulated) amounted to 0.7 ± 0.1 µM. The same compound returned an IC50 (IC50 biochem assay (M), Table 1, biochemical assay) of 0.614 µM. Further, the “Imax [%] (mean ± SEM)” value under setting [3] is reported as −99.0 ± 1.0%.

Take `N#Cc1ccccc1CN1CCCC(C(=O)NCc2ccccc2)CCNC(=O)CC1` (stereo not drawn) [JS-13, N-benzyl-1-(2-cyanobenzyl)-4-oxo-1,5-diazacycloundecane-8-carboxamide]: the IC50 was 1.19 µM under setting [1] and 0.8 ± 0.9 µM under setting [4]. Also, the inhibition constant Ki under setting [2] was 0.12 ± 0.13 µM. Besides, the “Imax [%] (mean ± SEM)” value under setting [3] is −94.4 ± 5.4%.

For the compound `CN(Cc1ccccc1)C(=O)c1cn2ccnc(-c3ccccc3)c2n1` [JS-14, N-benzyl-N-methyl-8-phenylimidazo[1,2-a]pyrazine-2-carboxamide], the IC50 by setting is: under setting [1], 18.6 µM; under setting [4], 12.7 ± 4.9 µM. Also, the Ki under setting [2] was 1.87 ± 0.723 µM. Moreover, the “Imax [%] (mean ± SEM)” value under setting [3] is recorded as −99.0 ± 0.0%.
